According to patent EP0888346B1, “CORALYNE ANALOGS AS TOPOISOMERASE INHIBITORS” (RUTGERS, THE STATE UNIVERSITY OF NEW JERSEY, priority 1996, dated 1997):
Converted amounts (≈) assume the structure as drawn. “And” between values parts separate entries of the source, which are not always exact repeats. Identical values can stand only once.

Key:
[1] = tested on: calf thymus topoisomerase II; assay: Topo II cleavage assay (plasmid YEpG DNA); type: biochemical; details: concentration relative to VM-26 = 1 producing the same cleavage on the plasmid DNA
Excerpt: The plasmid pET11a and the E. coli strain BL21(DE3) used for enzyme expression were purchased from Novagen. IPTG was purchased from Sigma. The ECL system used for the Western blotting analysis of bacterial lysates was from Amersham (UK). All the restriction enzymes and Vent polymerase were from New England Biolabs. Mammalian topoisomerase II was isolated from calf thymus glands according to the published procedure (Halligan et al., J. Biol. Chem. 260:2475-2482 (1985)). The single copy yeast plasmids YCpGAL1 expressing various topoisomerase I genes in JN2-134 yeast strain were a kind gift of Dr. M-A. Bjornsti (Thomas Jefferson University, Philadelphia, PA). All bacterial and yeast media were from Difco (Detroit, MI), while cell culture media were purchased from Gibco-BRL (Gaithersburg, MD).
(§1) Cleavage assays for the recombinant topoisomerases I and calf thymus topoisomerases I and II were done as described (Liu et al., J. Biol. Chem. 258:15365-15370 (1983)). The plasmid YEpG DNA used for the cleavage assays was prepared and labeled at its 3'-end using the published procedures.

[2] = tested on: glioblastoma cell line SF-268; assay: MTA cytotoxicity assay, glioblastoma cells; type: cell-based; details: Homo sapiens, SF-268, 96 h, read-out: Cytotoxicity SF-268
Protocol: The results were plotted and the IC50 then measured.
The coralyne analog 7c was tested for its effectiveness against glioblastoma cells. The assay used was similar to that described above for the RPMI-8402 cell line. The results are shown in table 2 below which compares the effect of Compound 7c against the leukemia cell line (RPMI 8402), epidermal carncinoma (KB3-1) and glioblastoma (SF-268): Table 2

human topoisomerase I = target: T1, human topoisomerase I (Homo sapiens, UniProt P11387); assay: Topo I cleavage assay (plasmid YEpG DNA); type: biochemical
T1 construct: 15 amino acid vector-derived fusion (pET-11a leader); made in house; host or cells: E. coli BL21(DE3)
T1 sequence (P11387 1-765): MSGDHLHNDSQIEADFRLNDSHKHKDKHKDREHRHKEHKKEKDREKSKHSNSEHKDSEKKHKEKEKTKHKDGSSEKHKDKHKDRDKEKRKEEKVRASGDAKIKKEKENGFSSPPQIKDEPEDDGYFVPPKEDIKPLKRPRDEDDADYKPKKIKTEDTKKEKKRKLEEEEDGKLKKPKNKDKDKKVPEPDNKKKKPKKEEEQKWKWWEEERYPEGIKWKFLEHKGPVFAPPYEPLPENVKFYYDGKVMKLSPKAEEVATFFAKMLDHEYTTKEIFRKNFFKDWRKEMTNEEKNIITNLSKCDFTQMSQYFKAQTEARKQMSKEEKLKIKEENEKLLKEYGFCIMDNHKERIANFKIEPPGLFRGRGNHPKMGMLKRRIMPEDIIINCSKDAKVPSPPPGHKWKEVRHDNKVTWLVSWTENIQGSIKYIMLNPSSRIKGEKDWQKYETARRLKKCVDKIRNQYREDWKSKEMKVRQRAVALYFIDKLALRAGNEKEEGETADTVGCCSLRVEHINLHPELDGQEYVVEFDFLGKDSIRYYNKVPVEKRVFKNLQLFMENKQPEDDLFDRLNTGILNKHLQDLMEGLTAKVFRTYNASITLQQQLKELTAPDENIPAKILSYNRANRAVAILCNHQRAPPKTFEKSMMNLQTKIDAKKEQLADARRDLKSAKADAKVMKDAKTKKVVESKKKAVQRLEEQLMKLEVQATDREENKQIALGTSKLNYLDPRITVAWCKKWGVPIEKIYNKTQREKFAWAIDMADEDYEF
Excerpt: To obtain large quantity of human topoisomerase I, the human topoisomerase I cDNA was cloned into the pET-11a vector, in which transcription of the cDNA is under the control of the inducible T7 promoter (Studier et al., Methods in Enzymol., Vol. 185:60-89, San Diego: Academic Press (1990)). Briefly, a 3.4 kb DNA fragment containing the entire coding sequence of human topoisomerase I and approximately 1 kb of untranslated region downstream of the stop codon was isolated from the plasmid YCpGAL1-hTOP1 (Bjornsti et al., Cancer Res. 49:6318-6323 (1989)) by cutting at the BamHI and EcoRI sites. The vector pET-11a was cut with the same restriction enzymes, dephosphorylated and ligated to the insert in the proper reading-frame downstream of the vector cloning site. The ligation mixture was used to transform E. coli, the correct clone pET1B was isolated (see figure 2A for the map) and its identity confirmed by restriction mapping. Since the translational start in pET is positioned at an upstream NdeI site, the expressed topoisomerase I has a 15 amino acid fusion at its N-terminus. pET1B was then transformed into E. coli BL21(DE3), and, upon induction with 0.4 mM IPTG for 1 hour, the bacterial lysate was analyzed by 10 % SDS-PAGE. Expression was confirmed by Western blotting using rabbit antibodies against human topoisomerase I. Isolation of the expressed protein was done by a simple procedure. Briefly, E. coli cells were lysed by repeated sonic bursts. The sonic extract was made in 1 M NaCl and 6% polyethylene glycol (PEG) to remove nucleic acids. The PEG supernatant was chromatographed directly on a hydroxyapatite column. Expressed human DNA topoisomerase I was eluted at the 0.6 M potassium phosphate step. The eluted enzyme was dialyzed against 50% glycerol, 30 mM potassium phosphate (pH 7.0), 1 mM dithiothreitol (DTT) and 0.1 mM EDTA and stored at -20°C.
as §1

## CC[C@@]1(O)C(=O)OCc2c1cc1n(c2=O)Cc2cc3ccccc3nc2-1 [CPT, camptothecin, reference compound]
[1]
  Topo II-mediated DNA cleavage (REC, Relative Effective Concentration): >1000
[2]
  IC50: 5 ng/mL (≈ 0.0144 µM)
Human topoisomerase I; concentration relative to camptothecin (CPT) = 1 producing the same cleavage on the plasmid DNA
  Topo I-mediated DNA cleavage (REC, Relative Effective Concentration): 1
Human topoisomerase I; read-out: concentration giving total cleavage of DNA in the presence of topoisomerase I
  EC (total cleavage): 0.29 µM and 0.1 µg/mL
